# Laboratory results taken from the NIST ThermoML archive (doi:10.1016/j.fluid.2018.07.020).
# Numbers after ± are expanded uncertainties.
# How the values were obtained:
# [1] = for Normal melting temperature: Crystal 1, DTA; for Triple point temperature: Crystal 2, DSC
# [2] = Molar enthalpy of transition or fusion; conditions: DSC
Normal melting temperature [1] [°C],Triple point temperature [1] [K],Molar enthalpy of transition or fusion ([2]; Crystal 1) [kcal/mol],Molar enthalpy of transition or fusion ([2]; Crystal 2) [kcal/mol],SMILES
160.02 ± 0.71,379.9 ± 0.94,2.32 ± 0.526,3.08 ± 0.526,CCCC[P+](CCCC)(CCCC)CCCS(=O)(=O)[O-] [3-(tributylphosphonio)propane-1-sulfonate]
172.88 ± 0.71,360.22 ± 0.94,3.66 ± 0.359,2.32 ± 0.335,CC[N+](CC)(CC)CCCS(=O)(=O)[O-] [3-(triethylammonio)propane-1-sulfonate]
206.74 ± 0.71,,6.79 ± 0.645,,CCCCCC[N+](CCCCCC)(CCCCCC)CCCS(=O)(=O)[O-] [3-(trihexylammonio)propane-1-sulfonate]
173.57 ± 0.71,,4.71 ± 0.55,,CCCC[P+](CCCC)(CCCC)CCCCS(=O)(=O)[O-] [4-(tributylphosphonio)butane-1-sulfonate]
199.60 ± 0.71,407.51 ± 0.94,4.31 ± 0.669,1.43 ± 0.669,CCCCCC[N+](CCCCCC)(CCCCCC)CCCCS(=O)(=O)[O-] [4-(trihexylammonio)butane-1-sulfonate]
273.89 ± 0.71,,9.44 ± 0.335,,O=S(=O)([O-])CCC[n+]1ccccc1 [[PyC3S]]
